Laboratory results reported in patent publication US10806795B2, “Bispecific anti-hapten/anti-blood brain barrier receptor antibodies, complexes thereof and their use as blood brain barrier shuttles” (Hoffmann-La Roche Inc., priority 2014, dated 2020).
pKd: −log10 of the molar value. Entries after “also recorded” stand apart in the source; their conditions may differ. Starred links: 1 amine or outer side, 2 acyl side, 3 side chain; linkers in the order of their positions; H or OH if unused. Non-standard residues stand in square brackets, D forms with d. No end group written: not given here. Pqa = (4-oxo-6-piperazin-1-yl-4H-quinazolin-3-yl)-acetic acid in the backbone, O=C(Cn1cnc2ccc(N3CCN([*:1])CC3)cc2c1=O)[*:2]; NMeR = CN[C@@H](CCCNC(=N)N)C(=O)O

Experiments:
[1] = Serum stability of digoxigenylated polypeptide, free or antibody-complexed (Western Blot-related assay of serum); format: in vivo, mice (strain NMRI); conditions: 32.1 nmol, serum 0.08 h, 2 h, 4 h, 24 h, listed as non-complexed polypeptide
Procedure: Serum samples were stored at −80° C.
The determination of the amount of digoxigenylated peptide in the serum at the given time points was difficult compared to the detection of Dig-Cy5 as no direct means to detect the polypeptide in serum samples was available. Therefore, a Western Blot-related assay to detect digoxigenylated peptide in serum was established. In a first step, the serum samples were separated on reducing SDS-PAGE. Because sample preparation included exposure of the serum to high concentrations of SDS and reducing agents, complexed Dig-polypeptide conjugates can become released from the (completely denatured/unfolded) anti-digoxigenin antibody, whereas covalent conjugates remained bound. To mediate the release of the polypeptide from the non-covalent antibody complex and separate the individual components by SDS-PAGE, 2 μl of each serum sample was diluted in 18 μl 20 mM histidine/140 mM NaCl pH 6.0, mixed with 6.7 μl of 4×LDS sample buffer and 3 μl of 10× sample reducing agent (NuPAGE, Invitrogen) for 5 min at 95° C. As a control, 2 μl of serum of an untreated mouse of the same strain was used. […] Digoxigenylated polypeptides were subsequently detected on the membrane with an anti-digoxigenin antibody. […] Chemiluminescence was detected with the Lumilmager F1 (Roche) with an exposure time of 20 min.

[2] = molecular target: T1, NPY2R (Homo sapiens, UniProt P49146); assay: Effect on the Y2Receptor family: NPY2R
T1 sequence (P49146 1-381): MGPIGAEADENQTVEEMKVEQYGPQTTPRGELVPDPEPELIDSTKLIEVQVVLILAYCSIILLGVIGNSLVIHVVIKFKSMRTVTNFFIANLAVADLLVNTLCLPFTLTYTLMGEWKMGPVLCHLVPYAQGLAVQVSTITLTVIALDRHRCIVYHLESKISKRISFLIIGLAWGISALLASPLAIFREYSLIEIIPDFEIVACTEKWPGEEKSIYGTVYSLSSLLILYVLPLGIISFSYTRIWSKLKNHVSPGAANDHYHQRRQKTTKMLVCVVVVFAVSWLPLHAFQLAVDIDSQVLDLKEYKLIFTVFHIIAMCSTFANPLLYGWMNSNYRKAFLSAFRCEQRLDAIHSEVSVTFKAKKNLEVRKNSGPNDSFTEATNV

[3] = molecular target: T2, NPY1R (Homo sapiens, UniProt P25929); assay: Effect on the Y2Receptor family: NPY1R
T2 sequence (P25929 1-384): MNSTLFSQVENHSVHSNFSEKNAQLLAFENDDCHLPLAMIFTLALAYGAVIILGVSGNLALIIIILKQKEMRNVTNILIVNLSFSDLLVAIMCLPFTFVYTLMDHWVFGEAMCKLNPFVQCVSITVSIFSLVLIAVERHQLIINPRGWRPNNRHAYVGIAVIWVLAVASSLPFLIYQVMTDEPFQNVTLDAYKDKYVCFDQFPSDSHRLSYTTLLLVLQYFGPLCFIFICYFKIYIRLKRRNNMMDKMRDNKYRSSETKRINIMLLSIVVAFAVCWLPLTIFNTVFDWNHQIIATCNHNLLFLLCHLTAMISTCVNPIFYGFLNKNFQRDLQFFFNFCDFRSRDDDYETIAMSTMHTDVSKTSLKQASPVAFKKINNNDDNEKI

[4] = molecular target: NPY4R (Homo sapiens, UniProt P50391); assay: Effect on the Y2Receptor family: NPY4R
NPY4R, sequence (P50391 whole entry, species assumed): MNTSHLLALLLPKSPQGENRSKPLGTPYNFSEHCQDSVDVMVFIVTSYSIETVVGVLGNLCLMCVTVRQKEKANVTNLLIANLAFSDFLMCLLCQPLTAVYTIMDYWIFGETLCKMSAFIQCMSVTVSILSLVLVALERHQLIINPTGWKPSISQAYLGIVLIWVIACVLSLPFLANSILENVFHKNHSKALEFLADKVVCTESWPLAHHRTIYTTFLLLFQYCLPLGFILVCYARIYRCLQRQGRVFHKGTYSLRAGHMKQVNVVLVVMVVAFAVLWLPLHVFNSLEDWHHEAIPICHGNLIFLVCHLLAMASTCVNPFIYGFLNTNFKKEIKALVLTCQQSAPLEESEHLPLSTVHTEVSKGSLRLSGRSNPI

[5] = molecular target: T3, NPY5R (Homo sapiens, UniProt Q15761); assay: Effect on the Y2Receptor family: NPY5R
T3 sequence (Q15761 1-445): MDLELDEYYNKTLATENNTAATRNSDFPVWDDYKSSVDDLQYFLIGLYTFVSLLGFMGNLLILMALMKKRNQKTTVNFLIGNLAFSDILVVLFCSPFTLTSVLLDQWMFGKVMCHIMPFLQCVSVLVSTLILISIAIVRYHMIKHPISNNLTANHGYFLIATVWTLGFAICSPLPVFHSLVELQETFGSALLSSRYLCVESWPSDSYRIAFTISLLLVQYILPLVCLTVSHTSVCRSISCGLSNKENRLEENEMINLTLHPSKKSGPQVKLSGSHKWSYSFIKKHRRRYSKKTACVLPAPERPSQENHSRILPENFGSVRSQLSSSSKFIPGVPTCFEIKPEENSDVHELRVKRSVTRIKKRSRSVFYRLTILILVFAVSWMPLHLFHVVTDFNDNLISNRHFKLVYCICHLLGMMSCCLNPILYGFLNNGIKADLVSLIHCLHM

[6] = parameters: species or system mice; conditions: mouse, in vivo
Source text: The control group was not pre-injected with the anti-biotin antibody.

[7] = molecular target: anti-helicar motif amino acid sequence antibody; assay: Binding [Kd] of PYY peptides by anti-helicar motif amino acid sequence antibody

NPY2R [2] [nM]	NPY1R [3]	NPY4R [4]	NPY5R [5]	pKd [7]	Compound	presence/amount of the digoxigenin polypeptide in murine serum [1]	serum half-life and exposure levels [6]
					CC[C@H](C)[C@H](NC(C)=O)C(=O)N[C@@H](CCCCNC(=O)CCOCCOCCOCCNC(=O)CO[C@H]1CC[C@@]2(C)[C@H](CC[C@@H]3[C@@H]2C[C@@H](O)[C@]2(C)[C@@H](C4=CC(=O)OC4)CC[C@]32O)C1)C(=O)N1CCN(c2ccc3ncn(CC(=O)N[C@@H](CCCNC(=N)N)C(=O)N[C@@H](Cc4c[nH]cn4)C(=O)N[C@@H](Cc4ccc(O)cc4)C(=O)N[C@@H](CC(C)C)C(=O)N[C@@H](CC(N)=O)C(=O)N[C@@H](Cc4c[nH]c5ccccc45)C(=O)N[C@H](C(=O)N[C@H](C(=O)N[C@@H](CCCNC(=N)N)C(=O)N[C@@H](CCC(N)=O)C(=O)N(C)[C@@H](CCCNC(=N)N)C(=O)N[C@@H](Cc4ccc(O)cc4)C(N)=O)[C@@H](C)O)C(C)C)c(=O)c3c2)CC1 [Ac-PYY(PEG3-Dig)]	barely any signal associable to the small polypeptide was detectable even at the earliest time point; also recorded: very short half-life in the serum of mice	
1.0	in-	in-	in-		Ac-Ile-Lys-Pqa-Arg-His-Tyr-Leu-Asn-Trp-Val-Thr-Arg-Gln-(NMe)-Arg-Try-NH2 * 4 HOAc (Ac-IK[Pqa]RHYLNWVTRQ[NMeR]Y-NH2; also: 4 HOAc salt)		
					Biotin-O2Oc-Ser-O2Oc-DADOO-Cy5 [Biotin-Cy5]		eliminated with a low serum half-life and low exposure levels
6.38		in-	in-	7.92	IKPEAPGEDASPEAHLANEVARLHYLNLVTRQRY-NH2 [PYY_helicar]		
